Test results reported in article PMC6407913, “DREADD Agonist 21 Is an Effective Agonist for Muscarinic-Based DREADDs in Vitro and in Vivo” (ACS Pharmacology & Translational Science, 2018).
Positions count from the first letter of the chain named. Where “and” joins values, the source holds several entries; their conditions need not be identical. Equal values may be shown once. Read-outs that look alike come from different tables or passages of the source.

Experiments:
hM4 = molecular target: T1, hM4 (Homo sapiens, UniProt P08173); assay: pERK assay, antagonist mode (shift of ACh curve); type: cell-based; details: hM4, CHO cells
T1 construct: HA (hemagglutinin); expressed in transfected cells
T1 sequence (P08173 1-479): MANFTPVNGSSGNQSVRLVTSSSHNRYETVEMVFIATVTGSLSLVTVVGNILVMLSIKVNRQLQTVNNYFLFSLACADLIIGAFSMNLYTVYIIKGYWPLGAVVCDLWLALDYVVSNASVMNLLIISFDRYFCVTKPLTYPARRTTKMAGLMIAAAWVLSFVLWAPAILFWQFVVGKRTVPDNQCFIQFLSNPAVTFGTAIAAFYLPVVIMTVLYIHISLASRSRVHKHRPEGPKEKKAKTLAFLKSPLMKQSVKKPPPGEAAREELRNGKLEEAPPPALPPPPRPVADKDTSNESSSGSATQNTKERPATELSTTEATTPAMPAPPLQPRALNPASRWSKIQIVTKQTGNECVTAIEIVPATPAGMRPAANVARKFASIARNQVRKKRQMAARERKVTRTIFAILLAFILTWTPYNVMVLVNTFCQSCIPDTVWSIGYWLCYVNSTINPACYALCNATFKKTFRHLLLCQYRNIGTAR

hM4Di [1] = molecular target: T2, hM4Di (Homo sapiens, UniProt P08173, A203G/Y113C); assay: ERK1/2 phosphorylation (pERK1/2) assay
T2 sequence (P08173 1-479 Y113C/A203G): T1 sequence (P08173 1-479) with Y113C, A203G

hM4Di [2] = molecular target: T2, hM4Di; assay: whole-cell [3H]NMS competition binding
M1 = M1 (Homo sapiens, UniProt P11229); assay: NIMH PDSP radioligand binding, membranes
Sequence of M1 (P11229 whole entry): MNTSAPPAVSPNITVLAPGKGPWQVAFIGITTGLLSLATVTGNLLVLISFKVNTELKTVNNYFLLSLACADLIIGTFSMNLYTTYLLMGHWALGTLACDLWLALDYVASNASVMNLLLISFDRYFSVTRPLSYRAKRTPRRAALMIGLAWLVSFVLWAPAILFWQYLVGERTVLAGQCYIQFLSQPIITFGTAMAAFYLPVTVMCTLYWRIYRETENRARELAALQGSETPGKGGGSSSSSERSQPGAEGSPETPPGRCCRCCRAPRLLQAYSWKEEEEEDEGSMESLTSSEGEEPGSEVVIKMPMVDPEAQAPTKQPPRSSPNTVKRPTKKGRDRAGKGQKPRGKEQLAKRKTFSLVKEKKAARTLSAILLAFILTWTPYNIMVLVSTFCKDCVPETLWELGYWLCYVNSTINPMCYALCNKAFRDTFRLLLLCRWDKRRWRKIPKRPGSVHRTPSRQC
Method: (§1) Radioligand binding assays with membrane preparations to determine binding affinity were carried out as outlined before[540] and by the National Institute of Mental Health’s Psychoactive Drug Screening Program (NIMH PDSP) (https://pdsp.unc.edu/), Contract # HHSN-271–2013–00017-C. The NIMH PDSP is Directed by B.L.R. at the University of North Carolina at Chapel Hill, Chapel Hill, NC, and Project Officer Jamie Driscoll at NIMH, Bethesda, MD.

D1 = D1 (Homo sapiens, UniProt P21728); assay: NIMH PDSP radioligand binding, membranes
Sequence of D1 (P21728 whole entry): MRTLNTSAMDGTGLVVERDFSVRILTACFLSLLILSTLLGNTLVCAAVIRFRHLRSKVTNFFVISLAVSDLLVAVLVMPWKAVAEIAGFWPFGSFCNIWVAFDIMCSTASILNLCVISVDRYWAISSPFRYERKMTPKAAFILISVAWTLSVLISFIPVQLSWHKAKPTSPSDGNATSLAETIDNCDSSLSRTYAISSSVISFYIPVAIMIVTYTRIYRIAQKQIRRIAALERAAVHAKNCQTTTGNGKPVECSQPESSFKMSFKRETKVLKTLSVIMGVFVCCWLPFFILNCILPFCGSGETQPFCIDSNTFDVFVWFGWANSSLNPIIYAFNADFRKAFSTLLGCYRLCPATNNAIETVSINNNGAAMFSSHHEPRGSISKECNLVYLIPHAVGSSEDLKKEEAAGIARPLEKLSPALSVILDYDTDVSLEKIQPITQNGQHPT
Method: as §1

5-HT5A = molecular target: T3, 5-HT5A (Homo sapiens, UniProt P47898); assay: NIMH PDSP radioligand binding, membranes
T3 construct: NIMH PDSP
T3 sequence (P47898 whole entry, species assumed): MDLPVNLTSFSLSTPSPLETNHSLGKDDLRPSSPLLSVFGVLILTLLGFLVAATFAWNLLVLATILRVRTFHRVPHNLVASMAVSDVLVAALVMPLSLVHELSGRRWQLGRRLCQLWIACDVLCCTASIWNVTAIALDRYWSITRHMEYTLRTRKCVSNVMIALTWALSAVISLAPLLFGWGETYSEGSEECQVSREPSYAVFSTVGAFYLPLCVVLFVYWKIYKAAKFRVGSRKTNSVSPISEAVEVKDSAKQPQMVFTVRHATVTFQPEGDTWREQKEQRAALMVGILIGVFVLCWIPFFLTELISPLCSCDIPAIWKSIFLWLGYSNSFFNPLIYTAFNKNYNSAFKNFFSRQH
Method: as §1

MOR = MOR (Homo sapiens, UniProt P35372); assay: NIMH PDSP radioligand binding, membranes
Sequence of MOR (P35372 whole entry): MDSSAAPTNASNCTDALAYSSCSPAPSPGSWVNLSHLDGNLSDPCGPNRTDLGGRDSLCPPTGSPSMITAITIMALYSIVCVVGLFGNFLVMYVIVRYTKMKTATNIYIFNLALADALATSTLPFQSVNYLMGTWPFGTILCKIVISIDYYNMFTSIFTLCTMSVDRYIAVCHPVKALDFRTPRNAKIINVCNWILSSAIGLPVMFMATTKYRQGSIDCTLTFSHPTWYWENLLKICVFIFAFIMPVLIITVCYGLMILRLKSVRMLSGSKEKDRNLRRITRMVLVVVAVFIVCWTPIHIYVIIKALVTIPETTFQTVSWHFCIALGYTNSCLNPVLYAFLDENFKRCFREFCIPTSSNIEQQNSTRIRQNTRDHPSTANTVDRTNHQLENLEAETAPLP
Method: as §1

Alpha2B = molecular target: T4, Alpha2B (Homo sapiens, UniProt P18089); assay: NIMH PDSP radioligand binding, membranes
T4 construct: NIMH PDSP
T4 sequence (P18089 whole entry): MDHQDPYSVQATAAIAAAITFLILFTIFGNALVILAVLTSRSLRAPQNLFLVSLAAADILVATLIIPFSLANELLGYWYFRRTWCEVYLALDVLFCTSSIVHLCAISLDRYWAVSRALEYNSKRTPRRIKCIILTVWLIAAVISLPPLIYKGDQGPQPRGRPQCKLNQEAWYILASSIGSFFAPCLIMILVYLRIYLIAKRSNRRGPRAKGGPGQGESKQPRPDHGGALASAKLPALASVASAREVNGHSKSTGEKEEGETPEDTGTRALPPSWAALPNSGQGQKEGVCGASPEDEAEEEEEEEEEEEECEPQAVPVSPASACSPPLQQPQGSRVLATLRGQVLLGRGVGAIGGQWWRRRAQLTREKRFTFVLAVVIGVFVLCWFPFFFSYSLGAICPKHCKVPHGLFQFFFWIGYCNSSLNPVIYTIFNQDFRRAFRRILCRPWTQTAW
Method: as §1

M4 = M4 (Homo sapiens, UniProt P08173); assay: NIMH PDSP radioligand binding, membranes
Method: as §1

5-HT4 = molecular target: T5, 5-HT4 (Homo sapiens, UniProt Q13639); assay: NIMH PDSP radioligand binding, membranes
T5 construct: NIMH PDSP
T5 sequence (Q13639 whole entry, species assumed): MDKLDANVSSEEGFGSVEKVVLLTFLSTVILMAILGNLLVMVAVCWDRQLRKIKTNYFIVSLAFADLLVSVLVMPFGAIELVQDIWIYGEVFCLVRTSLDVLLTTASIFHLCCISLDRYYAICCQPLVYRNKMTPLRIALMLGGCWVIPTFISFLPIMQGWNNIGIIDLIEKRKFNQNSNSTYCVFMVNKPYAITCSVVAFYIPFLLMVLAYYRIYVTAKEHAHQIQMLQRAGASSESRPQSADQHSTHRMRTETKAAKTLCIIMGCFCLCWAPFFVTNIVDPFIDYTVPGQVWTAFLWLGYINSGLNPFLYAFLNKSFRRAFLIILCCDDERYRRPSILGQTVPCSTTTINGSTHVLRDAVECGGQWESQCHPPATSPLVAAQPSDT
Method: as §1

H4 = H4 (Homo sapiens, UniProt Q9H3N8); assay: NIMH PDSP radioligand binding, membranes
Sequence of H4 (Q9H3N8 whole entry): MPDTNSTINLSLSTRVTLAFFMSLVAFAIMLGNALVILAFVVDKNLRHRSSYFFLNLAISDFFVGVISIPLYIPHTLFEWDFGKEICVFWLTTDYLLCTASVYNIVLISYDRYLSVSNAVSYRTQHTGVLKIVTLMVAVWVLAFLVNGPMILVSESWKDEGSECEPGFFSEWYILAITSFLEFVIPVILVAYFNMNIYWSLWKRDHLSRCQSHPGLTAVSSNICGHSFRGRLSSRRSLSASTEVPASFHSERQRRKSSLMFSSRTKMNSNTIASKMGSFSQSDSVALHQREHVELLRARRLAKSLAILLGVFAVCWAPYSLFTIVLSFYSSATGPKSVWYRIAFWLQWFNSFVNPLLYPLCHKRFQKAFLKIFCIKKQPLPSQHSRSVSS
Method: as §1

[3] = molecular target: T6, 318 nonolfactory human GPCRs (Homo sapiens, UniProt P51582); type: cell-based; details: P2RY4; C21 5 µM
T6 construct: expressed in transfected cells; host or cells: HTLA cells, transient

[4] = molecular target: T7, 318 nonolfactory human GPCRs (Homo sapiens, UniProt Q8TDT2); type: cell-based; details: GPR152; C21 5 µM
T7 construct: expressed in transfected cells; host or cells: HTLA cells, transient

[5] = molecular target: T8, 318 nonolfactory human GPCRs (Homo sapiens, UniProt Q9P1P5); type: cell-based; details: TAAR2; C21 5 µM
T8 construct: expressed in transfected cells; host or cells: HTLA cells, transient
T8 sequence (Q9P1P5 whole entry): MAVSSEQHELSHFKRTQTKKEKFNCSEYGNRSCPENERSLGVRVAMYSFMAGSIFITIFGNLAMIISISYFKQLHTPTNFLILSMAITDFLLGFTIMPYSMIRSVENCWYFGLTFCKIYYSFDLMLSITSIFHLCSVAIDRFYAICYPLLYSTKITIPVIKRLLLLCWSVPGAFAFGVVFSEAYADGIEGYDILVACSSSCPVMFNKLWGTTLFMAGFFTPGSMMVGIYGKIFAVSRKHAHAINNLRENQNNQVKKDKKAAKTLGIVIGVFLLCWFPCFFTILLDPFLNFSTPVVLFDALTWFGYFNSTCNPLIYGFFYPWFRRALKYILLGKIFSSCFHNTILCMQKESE

[6] = molecular target: 318 nonolfactory human GPCRs (Homo sapiens, UniProt P31391); type: cell-based; details: SSTR4; C21 5 µM
Sequence of 318 nonolfactory human GPCRs (Homo sapiens, UniProt P31391) (P31391 whole entry): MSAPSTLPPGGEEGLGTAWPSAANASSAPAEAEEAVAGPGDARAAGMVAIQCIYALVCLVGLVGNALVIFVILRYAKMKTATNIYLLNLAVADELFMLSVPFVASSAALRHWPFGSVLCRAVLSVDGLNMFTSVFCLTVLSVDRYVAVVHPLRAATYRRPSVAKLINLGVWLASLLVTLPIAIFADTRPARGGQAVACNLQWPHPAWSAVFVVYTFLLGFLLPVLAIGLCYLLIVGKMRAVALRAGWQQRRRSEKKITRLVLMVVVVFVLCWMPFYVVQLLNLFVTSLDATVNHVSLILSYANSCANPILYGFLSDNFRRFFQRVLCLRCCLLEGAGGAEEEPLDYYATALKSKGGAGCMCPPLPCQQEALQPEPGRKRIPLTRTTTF

[7] = molecular target: T9, 318 nonolfactory human GPCRs (Homo sapiens, UniProt P08912); type: cell-based; details: CHRM5; C21 5 µM
T9 construct: expressed in transfected cells; host or cells: HTLA cells, transient

[8] = molecular target: T10, 318 nonolfactory human GPCRs (Homo sapiens, UniProt Q8TDV2); type: cell-based; details: GPR148; C21 5 µM
T10 construct: expressed in transfected cells; host or cells: HTLA cells, transient
T10 sequence (Q8TDV2 whole entry): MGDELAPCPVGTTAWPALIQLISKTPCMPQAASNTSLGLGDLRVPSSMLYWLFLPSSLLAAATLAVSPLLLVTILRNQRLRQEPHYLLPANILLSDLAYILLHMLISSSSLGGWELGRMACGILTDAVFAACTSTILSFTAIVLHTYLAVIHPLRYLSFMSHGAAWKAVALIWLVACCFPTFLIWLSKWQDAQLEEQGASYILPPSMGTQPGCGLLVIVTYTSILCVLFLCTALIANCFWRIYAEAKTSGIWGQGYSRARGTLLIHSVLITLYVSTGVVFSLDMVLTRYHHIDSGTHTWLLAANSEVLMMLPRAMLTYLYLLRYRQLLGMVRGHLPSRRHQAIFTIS

[9] = molecular target: 318 nonolfactory human GPCRs (Homo sapiens, UniProt P47872); type: cell-based; details: SCTR; C21 5 µM
[10] = molecular target: T11, 318 nonolfactory human GPCRs (Homo sapiens, UniProt P30968); type: cell-based; details: GNRHR; C21 5 µM
T11 construct: expressed in transfected cells; host or cells: HTLA cells, transient
T11 sequence (P30968 whole entry): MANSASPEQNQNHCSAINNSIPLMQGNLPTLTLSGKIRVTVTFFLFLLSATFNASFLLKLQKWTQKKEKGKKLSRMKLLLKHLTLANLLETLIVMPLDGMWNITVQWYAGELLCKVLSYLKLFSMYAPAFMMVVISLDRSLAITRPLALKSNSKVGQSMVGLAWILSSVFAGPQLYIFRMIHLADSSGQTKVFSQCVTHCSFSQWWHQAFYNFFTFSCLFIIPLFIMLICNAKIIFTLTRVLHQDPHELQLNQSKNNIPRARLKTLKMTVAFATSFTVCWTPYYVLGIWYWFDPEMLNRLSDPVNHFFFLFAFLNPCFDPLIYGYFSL

[11] = molecular target: T12, 318 nonolfactory human GPCRs (Homo sapiens, UniProt O15552); type: cell-based; details: FFA2; C21 5 µM
T12 construct: expressed in transfected cells; host or cells: HTLA cells, transient
T12 sequence (O15552 whole entry): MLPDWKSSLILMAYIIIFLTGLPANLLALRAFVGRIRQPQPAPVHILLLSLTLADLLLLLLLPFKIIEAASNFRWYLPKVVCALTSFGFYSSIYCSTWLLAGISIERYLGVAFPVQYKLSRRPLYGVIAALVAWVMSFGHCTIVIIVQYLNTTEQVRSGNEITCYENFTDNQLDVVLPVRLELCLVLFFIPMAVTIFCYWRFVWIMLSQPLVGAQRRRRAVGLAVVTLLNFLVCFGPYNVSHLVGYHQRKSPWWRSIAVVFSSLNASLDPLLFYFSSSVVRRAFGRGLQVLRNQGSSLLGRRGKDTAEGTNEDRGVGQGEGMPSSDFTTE

[12] = molecular target: T13, 318 nonolfactory human GPCRs (Homo sapiens, UniProt P25101); type: cell-based; details: EDNRA; C21 5 µM
T13 construct: expressed in transfected cells; host or cells: HTLA cells, transient

[13] = read-out: Ki #1-#5 (individual assays)

## c1ccc2c(c1)N=C(N1CCNCC1)c1ccccc1N2 [C21, 11-(1-piperazinyl)-5H-dibenzo[b,e][1,4]diazepine]
hM4
  antagonist activity (shift of acetylcholine curve, pERK): weak functional antagonism
hM4Di [1]
  EC50: 17 nM
hM4Di [2]
  Ki: 178 nM
hM4Di [2]; hM4Di vs hM4
  higher binding affinity at hM4Di than at wildtype hM4: > 10 fold
M1; read-out: Ki
  Ki: 548 nM
M1; [13]
  Ki: 693 nM and 303 nM and 785 nM
D1; read-out: Ki
  Ki: 479 nM
D1; [13]
  Ki: 525 nM and 316 nM and 661 nM
5-HT5A; read-out: Ki
  Ki: 1910 nM
5-HT5A; [13]
  Ki: 3300 nM and 1400 nM and 2020 nM and 1430 nM
MOR; read-out: Ki
  Ki: 3880 nM
MOR; [13]
  Ki: 2230 nM and 4820 nM and 5430 nM
Alpha2B; read-out: Ki
  Ki: 474 nM
Alpha2B; [13]
  Ki: 1520 nM and 157 nM and 247 nM and 857 nM
M4; read-out: Ki
  Ki: 1880 nM
M4; [13]
  Ki: 1560 nM and 2440 nM and 3020 nM and 734 nM and 2800 nM
5-HT4; read-out: Ki
  Ki: > 10000 nM
5-HT4; [13]
  Ki: > 10000 nM
H4; read-out: Ki
  Ki: > 10000 nM
H4; [13]
  Ki: > 10000 nM
H4; read-out: pKi (mean) (converted)
  Ki: > 10000 nM
[3]
  FOLD OVER BASAL: 1 fold and 0.9 fold
[4]
  FOLD OVER BASAL: 0.5 fold and 0.7 fold and 0.6 fold
[5]
  FOLD OVER BASAL: 1.1 fold and 1 fold and 0.7 fold and 0.9 fold
[6]
  FOLD OVER BASAL: 1.7 fold and 1.4 fold and 1.2 fold and 1.1 fold
[7]
  FOLD OVER BASAL: 0.7 fold and 0.8 fold
[8]
  FOLD OVER BASAL: 0.9 fold and 0.6 fold and 0.5 fold and 1 fold
[9]
  FOLD OVER BASAL: 0.9 fold and 1 fold
[10]
  FOLD OVER BASAL: 0.6 fold and 1.2 fold and 0.9 fold and 0.7 fold
[11]
  FOLD OVER BASAL: 0.9 fold and 0.8 fold and 0.6 fold
[12]
  FOLD OVER BASAL: 0.8 fold and 1.4 fold and 0.9 fold
